Measured values published in ChEMBL document CHEMBL5154652, “Design, synthesis and anti-hepatocellular carcinoma activity of 3-arylisoquinoline alkaloids” (Eur J Med Chem, 2022).
The source made the active and inactive calls. No cut-off for these calls is given here.

How the values were obtained:
[1] = Tmax in male Sprague-Dawley rat at 100 mg/kg, ip; format: ADME, organism-based; conditions: in vivo
[2] = system: SGC-7901; test: Antiproliferative activity against human SGC-7901 cells after 72 hrs by MTT assay; format: functional, cell-based; conditions: SGC-7901, 72 h
[3] = system: HCCLM9; test: Induction of apoptosis in human HCCLM9 cells assessed as increase in Bax expression at 3.75 to 15 uM; format: functional, cell-based; conditions: dose 3.75-15 µM
[4] = system: HCCLM9; test: Induction of apoptosis in human HCCLM9 cells at 3.5 to 14 uM measured by Annexin V /propidium iodide staining method; format: functional, cell-based; conditions: dose 3.5-14 µM
[5] = system: HCCLM9; test: Induction of apoptosis in human HCCLM9 cells assessed as increase in cleaved caspase-9 expression at 3.75 to 15 uM; format: functional, cell-based; conditions: dose 3.75-15 µM
[6] = system: MCF7; test: Antiproliferative activity against human MCF7 cells after 72 hrs by MTT assay; format: functional, cell-based; conditions: MCF7, 72 h
[7] = system: HCCLM9; test: Anticlonogenic activity in human HCCLM9 cells at 1.25 to 5 uM measured by colony formation assay; format: functional, cell-based; conditions: dose 1.25-5 µM
[8] = system: Huh-7; test: Anticlonogenic activity in human Huh-7 cells at 2 to 8 uM measured by colony formation assay; format: functional, cell-based; conditions: dose 2-8 µM
[9] = MRT (0 to t)in male Sprague-Dawley rat at 100 mg/kg, ip; format: ADME, organism-based; conditions: in vivo
[10] = system: HCCLM9; test: Induction of mitochondrial apoptosis in human HCCLM9 cells assessed as inhibition of p-Akt levels at 3.75 to 15 uM measured after 48 hrs by Western blot analysis; format: functional, cell-based; conditions: dose 3.75-15 µM
[11] = system: HCCLM9; test: Inhibition of MMP-9 expression in human HCCLM9 cells at 3.75 to 15 uM measured by western blot analysis; format: functional, cell-based; conditions: dose 3.75-15 µM
[12] = system: HCCLM9; test: Antiproliferative activity against human HCCLM9 cells after 72 hrs by MTT assay; format: functional, cell-based; conditions: HCCLM9, 72 h
[13] = system: Huh-7; test: Induction of apoptosis in human Huh-7 cells assessed as increase in cleaved caspase-9 expression at 5 to 20 uM; format: functional, cell-based; conditions: dose 5-20 µM
[14] = system: HGC-27; test: Antiproliferative activity against human HGC-27 cells after 72 hrs by MTT assay; format: functional, cell-based; conditions: HGC-27, 72 h
[15] = system: HCCLM9; test: Inhibition of cell invasion in human HCCLM9 cells at 1.25 to 5 uM after 24 hrs; format: functional, cell-based; conditions: dose 1.25-5 µM
[16] = Cmax in male Sprague-Dawley rat at 100 mg/kg, ip; format: ADME, organism-based; set-up: dose 100 mg/kg, route ip; conditions: in vivo
[17] = system: Huh-7; test: Induction of mitochondrial apoptosis in human Huh-7 cells assessed as inhibition of p-mTOR levels at 5 to 20 uM measured after 48 hrs by Western blot analysis; format: functional, cell-based; conditions: dose 5-20 µM
[18] = system: Huh-7; test: Induction of apoptosis in human Huh-7 cells assessed as increase in cleaved caspase-3 expression at 5 to 20 uM; format: functional, cell-based; conditions: dose 5-20 µM
[19] = system: Huh-7; test: Inhibition of cell migration in human Huh-7 cells at 2 to 8 uM after 24 hrs by transwell assay; format: functional, cell-based; conditions: dose 2-8 µM
[20] = biological target: DNA topoisomerase 1 (Homo sapiens) (UniProt P11387); test: Inhibition of DNA topoisomerase 1 (unknown origin) at 25 to 50 uM measured by agar gel electrophoresis relative to control; conditions: dose 25-50 µM
[21] = system: RKO; test: Antiproliferative activity against human RKO cells after 72 hrs by MTT assay; format: functional, cell-based
[22] = biological target: DNA topoisomerase 2-alpha (Homo sapiens) (UniProt P11388); test: Inhibition of DNA topoisomerase 2 (unknown origin) at 25 uM measured by agar gel electrophoresis relative to control
[23] = system: HCCLM9; test: Induction of cell cycle arrest in human HCCLM9 cells assessed as increase in cell accumulation at G2/M phase at 3.75 to 15 uM measured after 48 hrs by flow cytometry analysis; format: functional, cell-based; conditions: dose 3.75-15 µM
[24] = system: Huh-7; test: Induction of cell cycle arrest in human Huh-7 cells assessed as decrease in cell accumulation at G0/G1 phase at 5 to 20 uM measured after 48 hrs by flow cytometry analysis; format: functional, cell-based; conditions: dose 5-20 µM
[25] = system: HCCLM9; test: Induction of mitochondrial apoptosis in human HCCLM9 cells assessed as inhibition of p-mTOR levels at 3.75 to 15 uM measured after 48 hrs by Western blot analysis; format: functional, cell-based; conditions: dose 3.75-15 µM
[26] = Genotoxicity in human Huh-7 cells assessed as induction of DNA damage at 20 uM by comet assay; format: toxicity, cell-based; conditions: huh-7, 20 µM
[27] = system: HCCLM9; test: Induction of cell cycle arrest in human HCCLM9 cells assessed as decrease in cell accumulation at G0/G1 phase at 3.75 to 15 uM measured after 48 hrs by flow cytometry analysis; format: functional, cell-based; conditions: dose 3.75-15 µM
[28] = system: Huh-7; test: Inhibition of MMP-9 expression in human Huh-7 cells at 5 to 20 uM measured by western blot analysis; format: functional, cell-based; conditions: dose 5-20 µM
[29] = system: HCCLM9; test: Induction of apoptosis in human HCCLM9 cells assessed as reduction in Bcl-2 expression at 3.75 to 15 uM; format: functional, cell-based; conditions: dose 3.75-15 µM
[30] = system: Huh-7; test: Induction of cell cycle arrest in human Huh-7 cells assessed as increase in cell accumulation at G2/M phase at 5 to 20 uM measured after 48 hrs by flow cytometry analysis; format: functional, cell-based; conditions: dose 5-20 µM
[31] = Half-life in male Sprague-Dawley rat at 100 mg/kg, ip; format: ADME, organism-based; conditions: in vivo
[32] = system: MDA-MB-231; test: Antiproliferative activity against human MDA-MB-231 cells after 72 hrs by MTT assay; format: functional, cell-based; conditions: MDA-MB-231, 72 h
[33] = system: SK-HEP1; test: Antiproliferative activity against human SK-HEP1 cells after 72 hrs by MTT assay; format: functional, cell-based; conditions: SK-HEP1, 72 h
[34] = system: Huh-7; test: Antiproliferative activity against human Huh-7 cells after 72 hrs by MTT assay; format: functional, cell-based; conditions: Huh-7, 72 h
[35] = system: Huh-7; test: Induction of cell cycle arrest in human Huh-7 cells assessed as decrease in cell accumulation at S phase at 5 to 20 uM measured after 48 hrs by flow cytometry analysis; format: functional, cell-based; conditions: dose 5-20 µM
[36] = system: Huh-7; test: Induction of apoptosis in human Huh-7 cells assessed as reduction in Bcl-2 expression at 5 to 20 uM; format: functional, cell-based; conditions: dose 5-20 µM
[37] = Observed apparent oral clearance in male Sprague-Dawley rat at 100 mg/kg, ip; format: ADME, organism-based; conditions: in vivo
[38] = system: Huh-7; test: Induction of apoptosis in human Huh-7 cells at 5 to 20 uM measured by Hoechst staining method; format: functional, cell-based; conditions: dose 5-20 µM
[39] = system: Huh-7; test: Induction of mitochondrial apoptosis in human Huh-7 cells assessed as inhibition of p-PI3K levels at 5 to 20 uM measured after 48 hrs by Western blot analysis; format: functional, cell-based; conditions: dose 5-20 µM
[40] = system: HT-29; test: Antiproliferative activity against human HT-29 cells after 72 hrs by MTT assay; format: functional, cell-based; conditions: HT-29, 72 h
[41] = system: HCCLM9; test: Induction of apoptosis in human HCCLM9 cells assessed as increase in cleaved caspase-3 expression at 3.75 to 15 uM; format: functional, cell-based; conditions: dose 3.75-15 µM
[42] = system: HCCLM9; test: Induction of apoptosis in human HCCLM9 cells assessed as increase in cytochrome C expression at 3.75 to 15 uM; format: functional, cell-based; conditions: dose 3.75-15 µM
[43] = system: Huh-7; test: Induction of apoptosis in human Huh-7 cells at 5 to 20 uM measured by Annexin V /propidium iodide staining method; format: functional, cell-based; conditions: dose 5-20 µM
[44] = system: U-251; test: Antiproliferative activity against human U-251 cells after 72 hrs by MTT assay; format: functional, cell-based; conditions: U-251, 72 h
[45] = system: HCCLM9; test: Induction of apoptosis in human HCCLM9 cells at 3.5 to 14 uM measured by Hoechst staining method; format: functional, cell-based; conditions: dose 3.5-14 µM

DNA topoisomerase 2-alpha (Homo sapiens), sequence (P11388 whole entry): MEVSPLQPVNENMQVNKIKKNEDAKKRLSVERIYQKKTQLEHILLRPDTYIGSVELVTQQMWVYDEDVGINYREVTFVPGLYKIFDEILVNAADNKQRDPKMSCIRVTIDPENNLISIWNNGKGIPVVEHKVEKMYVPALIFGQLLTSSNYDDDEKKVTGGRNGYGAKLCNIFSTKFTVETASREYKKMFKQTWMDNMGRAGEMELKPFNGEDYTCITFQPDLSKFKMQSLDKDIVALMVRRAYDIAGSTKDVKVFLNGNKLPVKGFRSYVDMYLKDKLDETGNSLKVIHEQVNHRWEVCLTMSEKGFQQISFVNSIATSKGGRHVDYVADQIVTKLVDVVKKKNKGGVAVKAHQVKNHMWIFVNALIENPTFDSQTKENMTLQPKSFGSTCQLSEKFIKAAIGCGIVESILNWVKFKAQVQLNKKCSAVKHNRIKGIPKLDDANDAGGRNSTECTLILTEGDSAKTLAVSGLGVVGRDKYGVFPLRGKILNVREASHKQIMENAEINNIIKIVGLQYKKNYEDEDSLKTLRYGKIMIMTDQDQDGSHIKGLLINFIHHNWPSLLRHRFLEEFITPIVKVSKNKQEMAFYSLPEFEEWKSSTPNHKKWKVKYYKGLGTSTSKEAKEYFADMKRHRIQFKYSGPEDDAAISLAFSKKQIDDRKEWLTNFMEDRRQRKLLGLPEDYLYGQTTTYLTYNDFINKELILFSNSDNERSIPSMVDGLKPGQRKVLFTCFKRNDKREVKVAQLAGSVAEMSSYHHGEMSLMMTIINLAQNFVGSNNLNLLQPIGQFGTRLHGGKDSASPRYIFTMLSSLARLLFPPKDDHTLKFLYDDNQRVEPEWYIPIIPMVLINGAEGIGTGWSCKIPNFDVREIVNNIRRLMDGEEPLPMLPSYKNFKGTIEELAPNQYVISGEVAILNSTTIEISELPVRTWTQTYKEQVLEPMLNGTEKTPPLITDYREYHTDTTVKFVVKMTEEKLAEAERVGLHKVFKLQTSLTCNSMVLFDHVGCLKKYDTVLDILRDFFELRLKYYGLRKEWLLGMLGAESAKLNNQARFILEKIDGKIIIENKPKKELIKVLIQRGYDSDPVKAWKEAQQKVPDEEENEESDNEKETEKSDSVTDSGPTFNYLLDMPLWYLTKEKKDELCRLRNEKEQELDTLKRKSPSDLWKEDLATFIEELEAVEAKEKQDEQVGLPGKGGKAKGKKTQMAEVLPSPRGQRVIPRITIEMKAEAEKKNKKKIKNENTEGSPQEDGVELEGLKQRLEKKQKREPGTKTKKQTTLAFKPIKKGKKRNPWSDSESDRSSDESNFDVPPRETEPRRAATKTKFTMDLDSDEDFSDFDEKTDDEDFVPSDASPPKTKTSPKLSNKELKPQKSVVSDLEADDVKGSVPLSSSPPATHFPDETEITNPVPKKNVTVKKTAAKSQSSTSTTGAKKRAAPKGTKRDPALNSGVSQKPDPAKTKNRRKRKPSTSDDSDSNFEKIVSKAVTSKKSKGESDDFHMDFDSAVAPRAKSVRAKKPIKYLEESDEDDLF
DNA topoisomerase 1 (Homo sapiens), sequence (P11387 whole entry): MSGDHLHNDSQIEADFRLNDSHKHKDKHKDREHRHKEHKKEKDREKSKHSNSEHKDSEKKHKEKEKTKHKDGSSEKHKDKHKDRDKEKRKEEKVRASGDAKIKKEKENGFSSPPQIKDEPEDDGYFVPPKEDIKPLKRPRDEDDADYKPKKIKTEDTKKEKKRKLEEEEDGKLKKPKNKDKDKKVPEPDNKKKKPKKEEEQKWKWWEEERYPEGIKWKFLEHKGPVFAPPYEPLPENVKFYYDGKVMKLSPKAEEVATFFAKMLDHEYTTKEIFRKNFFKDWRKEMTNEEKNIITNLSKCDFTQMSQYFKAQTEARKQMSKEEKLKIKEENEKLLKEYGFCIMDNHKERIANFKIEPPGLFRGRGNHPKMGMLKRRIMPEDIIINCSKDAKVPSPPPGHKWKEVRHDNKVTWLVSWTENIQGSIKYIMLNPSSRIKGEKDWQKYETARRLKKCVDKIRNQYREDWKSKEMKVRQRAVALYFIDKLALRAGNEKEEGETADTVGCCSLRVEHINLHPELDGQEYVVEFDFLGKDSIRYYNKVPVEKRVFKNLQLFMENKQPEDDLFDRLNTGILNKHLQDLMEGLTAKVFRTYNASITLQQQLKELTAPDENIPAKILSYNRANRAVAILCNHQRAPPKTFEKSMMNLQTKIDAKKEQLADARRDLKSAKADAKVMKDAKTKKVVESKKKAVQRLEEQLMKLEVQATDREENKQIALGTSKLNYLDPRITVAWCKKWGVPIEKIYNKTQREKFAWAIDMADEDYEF

## CNCc1cc2c(cc1-c1cc3ccc4c(c3cn1)OCO4)OCO2
[1]
  Tmax: 1 h
[2]
  IC50: 30.8 µM
[3]
  Activity: Active
[4]
  Activity: Active
[5]
  Activity: Active
[6]
  IC50: 22.4 µM
[7]
  Activity: Active
[8]
  Activity: Active
[9]
  MRT last: 1 h
[10]
  Activity: Active
[11]
  inhibition: Active
[12]
  IC50: 6.83 µM
[13]
  Activity: Active
[14]
  IC50: 34.2 µM
[15]
  inhibition: Active
[16]
  Cmax: 8900 ng/mL
[17]
  Activity: Active
[18]
  Activity: Active
[19]
  inhibition: Active
[20]
  inhibition: Active
[21]
  IC50: 47.8 µM
[22]
  inhibition: Active
[23]
  Activity: Active
[24]
  Activity: Active
[25]
  Activity: Active
[26]
  Activity: Non-Toxic
[27]
  Activity: Active
[28]
  inhibition: Active
[29]
  Activity: Active
[30]
  Activity: Active
[31]
  half-life: 3.73 h
[32]
  IC50: 19.9 µM
[33]
  IC50: 16.5 µM
[34]
  IC50: 9.82 µM
[35]
  Activity: Active
[36]
  Activity: Active
[37]
  CL/F: 20.42 (mg)/(ug/ml)/hr
[38]
  Activity: Active
[39]
  Activity: Active
[40]
  IC50: 31 µM
[41]
  Activity: Active
[42]
  Activity: Active
[43]
  Activity: Active
[44]
  IC50: 13.5 µM
[45]
  Activity: Active
